Where “and” joins values, the source holds several entries; their conditions need not be identical. Equal entries are not always repeated. Inconclusive results and toxic doses are left out. Rule as the data show it: active = T/C of 150% or more; inactive = T/C below 125%.
Tested on: L1210 leukemia ip in BDF1 mice, survival T/C
Test: NCI In Vivo Anticancer Drug Screen. Data for tumor model L1210 Leukemia (intraperitoneal) in B6D2F1 (BDF1) mice
Conditions: endpoint: mean survival time, higher = longer survival
In short: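 Tumor was transplanted into mice, which were then dosed with test compound or vehicle alone. Survival was recorded for each group, and the treated figure was expressed relative to the control figure.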

[1] = dose: 100.0 mg/kg/injection, schedule: Q01DX001 (sc), vehicle: steriod suspending solution
[2] = dose: 200.0 mg/kg/injection, schedule: Q01DX001 (sc), vehicle: steriod suspending solution
[3] = dose: 400.0 mg/kg/injection, schedule: Q01DX001 (sc), vehicle: steriod suspending solution
[4] = dose: 100.0 mg/kg/injection, schedule: Q04DX002 (ip), vehicle: Klucel (hydroxypropylcellulose) (HPC)
[5] = dose: 200.0 mg/kg/injection, schedule: Q04DX002 (ip), vehicle: Klucel (hydroxypropylcellulose) (HPC)
[6] = dose: 400.0 mg/kg/injection, schedule: Q04DX002 (ip), vehicle: Klucel (hydroxypropylcellulose) (HPC)
[7] = dose: 100.0 mg/kg/injection, schedule: Q01DX009 (ip), vehicle: saline with Tween-80
[8] = dose: 100.0 mg/kg/injection, schedule: Q04DX003 (ip), vehicle: saline with Tween-80
[9] = dose: 200.0 mg/kg/injection, schedule: Q01DX009 (ip), vehicle: saline with Tween-80
[10] = dose: 200.0 mg/kg/injection, schedule: Q04DX003 (ip), vehicle: saline with Tween-80
[11] = dose: 400.0 mg/kg/injection, schedule: Q01DX009 (ip), vehicle: saline with Tween-80
[12] = dose: 400.0 mg/kg/injection, schedule: Q04DX003 (ip), vehicle: saline with Tween-80
[13] = dose: 100.0 mg/kg/injection, schedule: Q04DX002 (ip), vehicle: saline with Tween-80
[14] = dose: 200.0 mg/kg/injection, schedule: Q04DX002 (ip), vehicle: saline with Tween-80
[15] = dose: 400.0 mg/kg/injection, schedule: Q04DX002 (ip), vehicle: saline with Tween-80
[16] = dose: 10.0 mg/kg/injection, schedule: Q01DX001 (ip), vehicle: saline
[17] = dose: 20.0 mg/kg/injection, schedule: Q01DX001 (ip), vehicle: saline
[18] = dose: 40.0 mg/kg/injection, schedule: Q01DX001 (ip), vehicle: saline
[19] = dose: 100.0 mg/kg/injection, schedule: Q01DX001 (ip), vehicle: saline with Tween-80
[20] = dose: 200.0 mg/kg/injection, schedule: Q01DX001 (ip), vehicle: saline with Tween-80
[21] = dose: 100.0 mg/kg/injection, schedule: Q01DX001 (ip), vehicle: saline
[22] = dose: 200.0 mg/kg/injection, schedule: Q01DX001 (ip), vehicle: saline
[23] = dose: 400.0 mg/kg/injection, schedule: Q01DX001 (ip), vehicle: saline

Measured: T/C

CSc1ncnc2c1ncn2CC(=O)C1CCC2C3CCC4=CC(=O)CCC4(C)C3CCC12C (stereo not given)
inactive: [1] 99 % of control | [2] 100 % of control | [3] 99 % of control

CC12CCC(=O)C=C1CCC1C2CCC2(C)C1CCC2(O)C#CCN(CCCl)CCCl (stereo not given)
inactive: [1] 96 % of control | [2] 104 % of control | [3] 98 % of control

C#CC1(NC(=S)Nc2cccc(OC)c2)CCCCC1
inactive: [4] 94 % of control | [5] 109 % of control | [6] 96 % of control

CCC(CCCN(CC)CCc1ccccc1)OC(=O)c1cc(OC)c(OC)c(OC)c1 (stereo not given)
inactive: dose: 4.68 mg/kg/injection, schedule: Q01DX009 (ip), vehicle: saline 106 % of control | dose: 9.37 mg/kg/injection, schedule: Q01DX009 (ip), vehicle: saline 100 % of control | dose: 18.75 mg/kg/injection, schedule: Q01DX009 (ip), vehicle: saline 100 % of control | dose: 18.75 mg/kg/injection, schedule: Q04DX003 (ip), vehicle: saline 118 % of control | dose: 37.5 mg/kg/injection, schedule: Q01DX009 (ip), vehicle: saline 100 % of control | dose: 37.5 mg/kg/injection, schedule: Q04DX003 (ip), vehicle: saline 97 % of control | dose: 75.0 mg/kg/injection, schedule: Q01DX009 (ip), vehicle: saline 95 % of control | dose: 75.0 mg/kg/injection, schedule: Q04DX003 (ip), vehicle: saline 103 % of control

O=C(Nc1cccc(Cl)c1Cl)C(Cl)(Cl)Cl
inactive: [4] 100 % of control | [5] 104 % of control | [6] 88 % of control

CCOC(=O)c1cnc(SC)nc1Nc1ccccc1OC
inactive: dose: 100.0 mg/kg/injection, schedule: Q04DX003 (ip), vehicle: Klucel (hydroxypropylcellulose) (HPC) 90 % of control | dose: 200.0 mg/kg/injection, schedule: Q04DX003 (ip), vehicle: Klucel (hydroxypropylcellulose) (HPC) 92 % of control | dose: 400.0 mg/kg/injection, schedule: Q04DX003 (ip), vehicle: Klucel (hydroxypropylcellulose) (HPC) 87 % of control

Cc1ccc(S(=O)(=O)Nc2ccc(C#N)c3ccccc23)cc1
inactive: [7] 92 % of control | [8] 90 % of control | [9] 89 % of control | [10] 95 % of control | [11] 89 % of control | [12] 87 % of control

Cc1c(C)c(Br)c(C)c(-c2c(C)c(C)c(C)c(Br)c2C)c1C
inactive: dose: 50.0 mg/kg/injection, schedule: Q01DX009 (ip), vehicle: Klucel (hydroxypropylcellulose) (HPC) 99 % of control | dose: 100.0 mg/kg/injection, schedule: Q01DX009 (ip), vehicle: Klucel (hydroxypropylcellulose) (HPC) 97 % of control | dose: 200.0 mg/kg/injection, schedule: Q01DX009 (ip), vehicle: Klucel (hydroxypropylcellulose) (HPC) 94 % of control | dose: 400.0 mg/kg/injection, schedule: Q01DX009 (ip), vehicle: Klucel (hydroxypropylcellulose) (HPC) 90 % of control

COc1cc(/C=C/C(=O)c2ccc3ccccc3c2)cc(OC)c1OC
inactive: [13] 97 % of control | [14] 107 % of control | [15] 87 % of control

Cc1cc(CSC(=N)N)c(CSC(=N)N)cc1C
inactive: [16] 97 % of control | [17] 94 % of control | [18] 94 % of control

CC(=O)c1cccc(NC(=O)Oc2cc(C)c(Cl)c(C)c2)c1
inactive: [19] 97 % of control | [7] 94 % of control and 92 % of control | [13] 94 % of control and 101 % of control | [8] 93 % of control | [20] 100 % of control | [9] 88 % of control and 89 % of control | [14] 93 % of control and 89 % of control | [10] 87 % of control | dose: 400.0 mg/kg/injection, schedule: Q01DX001 (ip), vehicle: saline with Tween-80 98 % of control | [11] 91 % of control | [15] 96 % of control and 101 % of control | [12] 90 % of control

CN1CCN(CCSC(=O)N2c3ccccc3Sc3ccc(Cl)cc32)CC1
inactive: dose: 75.0 mg/kg/injection, schedule: Q01DX001 (ip), vehicle: saline 94 % of control

C/C(=C\Cn1ccccc1=O)CCC(=O)O
inactive: dose: 100.0 mg/kg/injection, schedule: Q01DX009 (ip), vehicle: water 100 % of control | dose: 100.0 mg/kg/injection, schedule: Q04DX003 (ip), vehicle: other 94 % of control | dose: 200.0 mg/kg/injection, schedule: Q01DX009 (ip), vehicle: water 97 % of control | dose: 200.0 mg/kg/injection, schedule: Q04DX003 (ip), vehicle: other 98 % of control | dose: 400.0 mg/kg/injection, schedule: Q01DX009 (ip), vehicle: water 96 % of control | dose: 400.0 mg/kg/injection, schedule: Q04DX003 (ip), vehicle: other 89 % of control

Cc1[nH]cnc1C(c1ccccc1)c1ccccc1
inactive: [19] 108 % of control | [20] 100 % of control

COc1ccc(-n2c(=O)c(N=Nc3ccc(Cl)cc3)c(O)n(-c3ccc(C)cc3)c2=S)cc1
inactive: dose: 37.5 mg/kg/injection, schedule: Q01DX001 (ip), vehicle: Klucel (hydroxypropylcellulose) (HPC) 92 % of control | dose: 75.0 mg/kg/injection, schedule: Q01DX001 (ip), vehicle: Klucel (hydroxypropylcellulose) (HPC) 92 % of control | dose: 150.0 mg/kg/injection, schedule: Q01DX001 (ip), vehicle: Klucel (hydroxypropylcellulose) (HPC) 91 % of control

Cc1nc(NCc2ccccc2)c2cc[nH]c2n1
inactive: dose: 1.56 mg/kg/injection, schedule: Q01DX009 (ip), vehicle: Klucel (hydroxypropylcellulose) (HPC) 104 % of control and 111 % of control | dose: 3.12 mg/kg/injection, schedule: Q01DX009 (ip), vehicle: Klucel (hydroxypropylcellulose) (HPC) 96 % of control and 105 % of control | dose: 3.12 mg/kg/injection, schedule: Q04DX003 (ip), vehicle: Klucel (hydroxypropylcellulose) (HPC) 106 % of control | dose: 5.0 mg/kg/injection, schedule: Q01DX001 (ip), vehicle: saline 104 % of control | dose: 6.25 mg/kg/injection, schedule: Q01DX009 (ip), vehicle: Klucel (hydroxypropylcellulose) (HPC) 103 % of control and 110 % of control | dose: 6.25 mg/kg/injection, schedule: Q04DX003 (ip), vehicle: Klucel (hydroxypropylcellulose) (HPC) 103 % of control | [16] 104 % of control | dose: 12.5 mg/kg/injection, schedule: Q01DX009 (ip), vehicle: Klucel (hydroxypropylcellulose) (HPC) 100 % of control and 105 % of control | dose: 12.5 mg/kg/injection, schedule: Q04DX003 (ip), vehicle: Klucel (hydroxypropylcellulose) (HPC) 111 % of control | [17] 116 % of control | dose: 25.0 mg/kg/injection, schedule: Q01DX009 (ip), vehicle: Klucel (hydroxypropylcellulose) (HPC) 93 % of control and 97 % of control | dose: 25.0 mg/kg/injection, schedule: Q04DX003 (ip), vehicle: Klucel (hydroxypropylcellulose) (HPC) 103 % of control | [18] 104 % of control | dose: 80.0 mg/kg/injection, schedule: Q01DX001 (ip), vehicle: saline 110 % of control

CCCCC(=O)N/N=C\c1ccc2c(c1)OCO2
inactive: [21] 94 % of control | [22] 105 % of control | [23] 91 % of control

CC1(C)CC(C(N)=O)C(=O)O1 (stereo not given)
inactive: [8] 101 % of control | [10] 103 % of control | [12] 101 % of control

Nc1ncnc(N)c1NC(=O)c1cccnc1
inactive: dose: 100.0 mg/kg/injection, schedule: Q04DX003 (ip), vehicle: saline 92 % of control | dose: 200.0 mg/kg/injection, schedule: Q04DX003 (ip), vehicle: saline 96 % of control | dose: 400.0 mg/kg/injection, schedule: Q04DX003 (ip), vehicle: saline 100 % of control

CC(C)OC(=O)C(C)OC(=O)C1CCCCC1 (stereo not given)
inactive: [21] 98 % of control | [22] 97 % of control | [23] 93 % of control

O=[N+]([O-])c1ccc(Sc2cccs2)c([N+](=O)[O-])c1
inactive: [7] 97 % of control | [8] 105 % of control | [9] 100 % of control | [10] 93 % of control | [11] 102 % of control | [12] 93 % of control

Reference: PubChem BioAssay AID248 (DTP/NCI, 2004)
